How the values were obtained:
[1] = target: Somatostatin receptor type 2 (Rattus norvegicus, UniProt P30680); experiment: Displacement of [125I][Tyr3]octreotide from sst2 receptor in rat cortex
[2] = target: Somatostatin receptor type 1 (Rattus norvegicus, UniProt P28646); experiment: Displacement of [125I]SRIF14 from sst1 receptor in rat cortex
[3] = target: Somatostatin receptor type 3 (Homo sapiens, UniProt P32745); experiment: Binding affinity to human recombinant sst3 receptor
[4] = target: Somatostatin receptor type 5 (Homo sapiens, UniProt P35346); experiment: Binding affinity to human recombinant sst5 receptor
[5] = target: Somatostatin receptor type 4 (Homo sapiens, UniProt P31391); experiment: Binding affinity to human recombinant sst4 receptor
[6] = target: T1, Somatostatin receptor type 1 (Homo sapiens, UniProt P30872); experiment: Binding affinity to human recombinant sst1 receptor
[7] = target: Somatostatin receptor type 2 (Homo sapiens, UniProt P30874); experiment: Binding affinity to human recombinant sst2 receptor
[8] = target: T1, Somatostatin receptor type 1; experiment: Antagonist activity at human recombinant sst1 receptor in CCl39 cells assessed as SRIF14-induced inhibition of forskolin-stimulated adenylate cyclase activity; type: functional, cell-based
[9] = target: T1, Somatostatin receptor type 1; experiment: Antagonist activity at human recombinant sst1 receptor assessed as inhibition of SRIF28-induced luciferase activity; type: functional
[10] = Ratio of drug level in brain to plasma in rat at 30 umol/kg after 10 mins; type: ADME; conditions: brain and plasma
[11] = Ratio of drug level in brain to plasma in rat at 30 umol/kg after 24 hrs; type: ADME; conditions: brain and plasma
[12] = target: D(2) dopamine receptor (Homo sapiens, UniProt P14416); experiment: Binding affinity to human dopamine D2 receptor
[13] = target: T2, 5-hydroxytryptamine receptor 1A (Homo sapiens, UniProt P08908); experiment: Binding affinity to human 5HT1A receptor
T2 sequence (P08908 whole entry): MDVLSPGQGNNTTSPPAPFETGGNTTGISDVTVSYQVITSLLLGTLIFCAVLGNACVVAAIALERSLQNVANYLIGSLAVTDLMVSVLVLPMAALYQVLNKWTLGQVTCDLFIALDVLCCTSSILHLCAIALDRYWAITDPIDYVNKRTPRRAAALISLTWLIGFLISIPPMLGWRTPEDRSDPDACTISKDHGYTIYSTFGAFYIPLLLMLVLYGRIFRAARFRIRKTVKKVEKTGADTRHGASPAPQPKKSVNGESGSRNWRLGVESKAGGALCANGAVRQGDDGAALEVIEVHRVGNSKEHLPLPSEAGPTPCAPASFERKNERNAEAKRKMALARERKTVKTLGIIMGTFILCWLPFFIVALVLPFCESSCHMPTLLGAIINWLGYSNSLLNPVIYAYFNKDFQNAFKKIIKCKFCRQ

[14] = target: T3, D(4) dopamine receptor (Homo sapiens, UniProt P21917); experiment: Binding affinity to human dopamine D4 receptor
T3 sequence (P21917 whole entry): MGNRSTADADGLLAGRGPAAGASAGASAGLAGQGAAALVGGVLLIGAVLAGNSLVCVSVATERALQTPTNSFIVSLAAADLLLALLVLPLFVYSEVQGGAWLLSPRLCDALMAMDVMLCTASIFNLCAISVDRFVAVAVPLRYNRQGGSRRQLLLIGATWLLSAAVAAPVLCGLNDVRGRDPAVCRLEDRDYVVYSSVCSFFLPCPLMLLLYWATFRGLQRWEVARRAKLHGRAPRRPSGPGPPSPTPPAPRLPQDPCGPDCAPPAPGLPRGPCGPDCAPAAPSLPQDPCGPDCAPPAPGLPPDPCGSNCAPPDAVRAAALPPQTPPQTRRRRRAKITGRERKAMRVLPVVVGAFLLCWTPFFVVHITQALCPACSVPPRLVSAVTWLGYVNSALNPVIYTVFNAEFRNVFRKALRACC

[15] = Oral bioavailability in rat; type: ADME, organism-based; conditions: in vivo

Somatostatin receptor type 4, sequence (P31391 whole entry): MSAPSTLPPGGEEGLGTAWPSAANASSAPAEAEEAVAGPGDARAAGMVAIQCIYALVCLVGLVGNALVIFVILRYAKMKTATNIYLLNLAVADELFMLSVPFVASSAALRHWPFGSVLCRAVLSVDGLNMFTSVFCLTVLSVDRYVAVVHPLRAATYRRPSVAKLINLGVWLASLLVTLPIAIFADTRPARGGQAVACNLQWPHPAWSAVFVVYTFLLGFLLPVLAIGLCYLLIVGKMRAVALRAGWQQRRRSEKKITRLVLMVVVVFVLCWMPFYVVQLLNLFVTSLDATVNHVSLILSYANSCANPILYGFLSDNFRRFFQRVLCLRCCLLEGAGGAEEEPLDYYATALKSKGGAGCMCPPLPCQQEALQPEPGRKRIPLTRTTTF
Somatostatin receptor type 3, sequence (P32745 whole entry): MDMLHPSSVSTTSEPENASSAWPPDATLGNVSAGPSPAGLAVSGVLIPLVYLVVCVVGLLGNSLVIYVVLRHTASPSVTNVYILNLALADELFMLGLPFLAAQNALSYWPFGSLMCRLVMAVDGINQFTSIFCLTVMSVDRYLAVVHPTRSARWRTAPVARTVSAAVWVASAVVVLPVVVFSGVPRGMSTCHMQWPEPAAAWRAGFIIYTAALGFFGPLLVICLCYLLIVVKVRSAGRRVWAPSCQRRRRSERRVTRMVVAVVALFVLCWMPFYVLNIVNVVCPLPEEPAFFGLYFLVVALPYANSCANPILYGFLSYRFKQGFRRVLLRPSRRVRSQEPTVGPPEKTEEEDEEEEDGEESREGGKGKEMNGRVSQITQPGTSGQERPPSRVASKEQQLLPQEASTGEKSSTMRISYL
Somatostatin receptor type 2 (Homo sapiens, UniProt P30874), sequence (P30874 whole entry): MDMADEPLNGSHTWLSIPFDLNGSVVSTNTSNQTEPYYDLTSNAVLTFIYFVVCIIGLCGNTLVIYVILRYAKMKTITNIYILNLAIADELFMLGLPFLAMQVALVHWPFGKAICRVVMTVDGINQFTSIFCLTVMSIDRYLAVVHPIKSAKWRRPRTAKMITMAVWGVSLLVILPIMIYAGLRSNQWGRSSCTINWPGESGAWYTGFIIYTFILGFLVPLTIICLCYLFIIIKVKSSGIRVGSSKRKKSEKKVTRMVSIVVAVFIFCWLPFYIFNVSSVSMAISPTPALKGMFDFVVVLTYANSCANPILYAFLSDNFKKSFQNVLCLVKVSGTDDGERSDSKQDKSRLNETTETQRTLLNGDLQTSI
Somatostatin receptor type 2 (Rattus norvegicus, UniProt P30680), sequence (P30680 whole entry): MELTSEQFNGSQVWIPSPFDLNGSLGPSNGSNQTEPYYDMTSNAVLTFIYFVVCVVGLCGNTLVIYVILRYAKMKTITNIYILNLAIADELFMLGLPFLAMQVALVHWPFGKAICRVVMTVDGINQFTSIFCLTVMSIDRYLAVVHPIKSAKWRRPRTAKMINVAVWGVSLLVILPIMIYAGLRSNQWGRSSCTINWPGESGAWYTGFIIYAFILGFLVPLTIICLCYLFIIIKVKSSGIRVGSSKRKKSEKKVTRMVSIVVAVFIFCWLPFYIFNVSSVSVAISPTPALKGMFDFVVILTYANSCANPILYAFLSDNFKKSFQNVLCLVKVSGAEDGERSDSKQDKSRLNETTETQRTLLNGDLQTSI
Somatostatin receptor type 5, sequence (P35346 whole entry): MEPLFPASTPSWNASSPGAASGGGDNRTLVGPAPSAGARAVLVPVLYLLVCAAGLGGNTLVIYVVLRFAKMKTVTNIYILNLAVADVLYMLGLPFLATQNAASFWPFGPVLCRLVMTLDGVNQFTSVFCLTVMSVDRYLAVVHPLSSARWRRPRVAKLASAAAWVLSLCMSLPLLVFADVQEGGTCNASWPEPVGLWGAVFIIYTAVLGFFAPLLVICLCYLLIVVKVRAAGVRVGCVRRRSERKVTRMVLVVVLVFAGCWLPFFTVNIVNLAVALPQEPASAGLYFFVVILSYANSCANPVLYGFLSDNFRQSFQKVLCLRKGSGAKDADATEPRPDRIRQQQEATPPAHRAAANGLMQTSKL
T1 sequence (P30872 whole entry): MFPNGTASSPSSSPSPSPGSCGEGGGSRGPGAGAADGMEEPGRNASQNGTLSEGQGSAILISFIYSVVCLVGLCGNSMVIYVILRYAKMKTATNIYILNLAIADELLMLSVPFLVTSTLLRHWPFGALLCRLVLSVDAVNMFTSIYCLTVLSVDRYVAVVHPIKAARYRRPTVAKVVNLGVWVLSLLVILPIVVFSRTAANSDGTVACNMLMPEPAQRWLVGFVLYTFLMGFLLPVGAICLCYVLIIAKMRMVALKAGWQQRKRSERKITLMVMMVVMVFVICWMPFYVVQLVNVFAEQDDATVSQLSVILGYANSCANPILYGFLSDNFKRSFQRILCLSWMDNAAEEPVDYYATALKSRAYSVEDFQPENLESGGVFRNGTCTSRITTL
Somatostatin receptor type 1 (Rattus norvegicus, UniProt P28646), sequence (P28646 whole entry): as the sequence (P30872 whole entry) above, with S8P, S11T, P16S, S20G, G25V, G26C, A32S, A45S, T385A, T389S counted along it
D(2) dopamine receptor, sequence (P14416 whole entry): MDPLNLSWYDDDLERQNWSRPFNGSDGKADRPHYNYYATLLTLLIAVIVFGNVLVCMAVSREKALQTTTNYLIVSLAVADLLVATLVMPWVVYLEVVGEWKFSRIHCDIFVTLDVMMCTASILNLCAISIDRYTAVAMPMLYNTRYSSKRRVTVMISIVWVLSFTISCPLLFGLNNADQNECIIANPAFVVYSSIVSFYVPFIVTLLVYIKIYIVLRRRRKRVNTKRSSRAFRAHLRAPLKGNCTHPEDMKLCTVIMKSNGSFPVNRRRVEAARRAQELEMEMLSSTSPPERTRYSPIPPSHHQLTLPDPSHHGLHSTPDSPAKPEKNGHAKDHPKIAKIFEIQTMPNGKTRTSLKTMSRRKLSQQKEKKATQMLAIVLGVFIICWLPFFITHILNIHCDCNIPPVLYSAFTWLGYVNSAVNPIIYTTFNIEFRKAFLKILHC

In the case of CN1C[C@H](C(=O)N2CCN(c3ccc([N+](=O)[O-])cc3)CC2)C[C@@H]2c3cccc4[nH]cc(c34)C[C@H]21, the Kd [1] is reported as 3.16 µM and the Kd [2] is reported as 3.89 nM.
For CN1C[C@H](C(=O)N2CCN(c3ccccn3)CC2)C[C@@H]2c3cccc4[nH]c(I)c(c34)C[C@H]21, the Kd [1] was 5.62 µM and the Kd [2] was 16.6 nM.
Molecule CN1C[C@@H](C(=O)N2CCN(c3cccc(=O)n3C)CC2)C[C@H]2c3cccc4[nH]c(Br)c(c34)C[C@@H]21 has a Kd [3] of 5.37 µM, a Kd [1] of 20.4 µM and a Kd [4] of 69.2 µM. For the same molecule, the Kd [2] was 417 nM, the Kd [5] was 8.13 µM and the Kd [6] was 1950 nM. It also gave a Kd [7] of 9.33 µM.
With CN1C[C@H](C(=O)N2CCN(c3cccc(=O)n3C)CC2)C[C@@H]2c3cccc4[nH]c(Br)c(c34)C[C@H]21 [ERGOLINE] the pKb [8] was 7.85 and the pKb [9] was 8.85.
With CN1C[C@H](C(=O)N2CCN(c3ccc(Cl)cc3)CC2)C[C@@H]2c3cccc4[nH]cc(c34)C[C@H]21 the Kd [1] was 2.19 µM and the Kd [2] was 19.5 nM.
With CN1C[C@H](C(=O)N2CCN(c3cccc(=O)n3C)CC2)C[C@@H]2c3cccc4[nH]cc(c34)C[C@H]21 the Kd [1] was 7.76 µM and the Kd [2] was 0.759 nM.
CN1C[C@H](C(=O)N2CCN(c3ccc4nsnc4n3)CC2)C[C@@H]2c3cccc4[nH]c(Br)c(c34)C[C@H]21 gave a Kd [1] of 4.57 µM and a Kd [2] of 0.372 nM.
Work on CN1C[C@H](C(=O)N2CCN(c3ccccn3)CC2)C[C@@H]2c3cccc4[nH]c(S(C)(=O)=O)c(c34)C[C@H]21 yielded a Kd [1] of 7.76 µM and a Kd [2] of 309 nM.
CCn1c(N2CCN(C(=O)[C@@H]3C[C@@H]4c5cccc6[nH]c(Cl)c(c56)C[C@H]4N(C)C3)CC2)cccc1=O showed a Kd [1] of 12 µM and a Kd [2] of 0.38 nM.
Molecule CCCCN1C[C@H](C(=O)N2CCN(c3ccccn3)CC2)C[C@@H]2c3cccc4[nH]c(Br)c(c34)C[C@H]21 has a Kd [2] of 1150 nM.
CSc1[nH]c2cccc3c2c1C[C@@H]1[C@@H]3C[C@@H](C(=O)N2CCN(c3ccccn3)CC2)CN1C showed a Kd [1] of 8.51 µM and a Kd [2] of 2.4 nM.
CN1C[C@H](C(=O)N2CCN(c3ccc(F)c(F)c3)CC2)C[C@@H]2c3cccc4[nH]c(Cl)c(c34)C[C@H]21 showed a Kd [1] of 12.9 µM and a Kd [2] of 0.603 nM.
CN1C[C@H](C(=O)N2CCN(c3cccc(=O)n3C)CC2)C[C@@H]2c3cccc4[nH]c(Cl)c(c34)C[C@H]21 gave a Kd [1] of 49 µM and a Kd [2] of 0.389 nM.
CN1C[C@H](C(=O)N2CCN(c3ccc(F)c(F)c3)CC2)C[C@@H]2c3cccc4[nH]c(Br)c(c34)C[C@H]21 showed a Kd [1] of 8.13 µM and a Kd [2] of 0.49 nM.
Work on CN1C[C@@H](C(=O)N2CCN(c3ccc4nonc4c3)CC2)C[C@H]2c3cccc4[nH]c(Br)c(c34)C[C@@H]21 yielded a Kd [3] of 7.24 µM, a Kd [1] of 12.6 µM and a Kd [4] of 23.4 µM. For the same molecule, the Kd [2] was 182 nM, the Kd [5] was 5.62 µM and the Kd [6] was 501 nM. The Kd [7] was 3.89 µM.
Work on CN1C[C@H](C(=O)N2CCN(c3ccc4nonc4c3)CC2)C[C@@H]2c3cccc4[nH]c(Cl)c(c34)C[C@H]21 yielded a Kd [1] of 5.13 µM and a Kd [2] of 0.389 nM.
Molecule CN1C[C@H](C(=O)N2CCN(c3ccc4nsnc4n3)CC2)C[C@@H]2c3cccc4[nH]cc(c34)C[C@H]21 has a Kd [1] of 3.02 µM and a Kd [2] of 1.02 nM.
Work on CN1C[C@H](C(=O)N2CCN(c3ccccn3)CC2)C[C@@H]2c3cccc4[nH]c(O)c(c34)C[C@H]21 yielded a Kd [1] of 8.51 µM and a Kd [2] of 240 nM.
Molecule CN1C[C@H](C(=O)N2CCN(c3ccc(Cl)cc3)CC2)C[C@@H]2c3cccc4[nH]c(Br)c(c34)C[C@H]21 has a Kd [1] of 2 µM and a Kd [2] of 5.5 nM.
O=C([C@H]1CN[C@@H]2Cc3c(Br)[nH]c4cccc(c34)[C@H]2C1)N1CCN(c2ccccn2)CC1 gave a Kd [1] of 7.94 µM and a Kd [2] of 170 nM.
In the case of CN1C[C@H](C(=O)N2CCN(c3ccc([N+](=O)[O-])cc3)CC2)C[C@@H]2c3cccc4[nH]c(Cl)c(c34)C[C@H]21, the Kd [1] is reported as 8.91 µM and the Kd [2] is reported as 1.26 nM.
Work on CC(C)CCN1C[C@H](C(=O)N2CCN(c3ccccn3)CC2)C[C@@H]2c3cccc4[nH]c(Br)c(c34)C[C@H]21 yielded a Kd [2] of 1740 nM.
In the case of CCn1c(N2CCN(C(=O)[C@@H]3C[C@@H]4c5cccc6[nH]c(Br)c(c56)C[C@H]4N(C)C3)CC2)cccc1=O, the Kd [1] is reported as 26.3 µM and the Kd [2] is reported as 0.282 nM.
CN1C[C@H](C(=O)N2CCN(c3ccc([N+](=O)[O-])cc3)CC2)C[C@@H]2c3cccc4[nH]c(Br)c(c34)C[C@H]21 showed a Kd [1] of 7.24 µM and a Kd [2] of 1.35 nM.
Molecule CN1C[C@H](C(=O)N2CCN(c3ccccn3)CC2)C[C@@H]2c3cccc4[nH]c(Br)c(c34)C[C@H]21 has a Kd [1] of 16.6 µM and a Kd [2] of 4.47 nM.
With CN1C[C@H](C(=O)N2CCN(c3ccccn3)CC2)C[C@@H]2c3cccc4[nH]cc(c34)C[C@H]21 the Kd [1] was 17.8 µM and the Kd [2] was 14.1 nM.
In the case of CCN1C[C@H](C(=O)N2CCN(c3ccc(F)c(F)c3)CC2)C[C@@H]2c3cccc4[nH]c(Br)c(c34)C[C@H]21, the Kd [1] is reported as 13.2 µM and the Kd [2] is reported as 0.977 nM.
For CN1C[C@H](C(=O)N2CCN(c3ccccn3)CC2)C[C@@H]2c3cccc4[nH]c(Cl)c(c34)C[C@H]21, the Kd [2] was 12.9 nM.
CN1C[C@H](C(=O)N2CCN(c3ccccn3)CC2)C[C@@H]2c3cccc4[nH]c([S+](C)[O-])c(c34)C[C@H]21 (stereo partly specified) showed a Kd [1] of 17.8 µM and a Kd [2] of 2630 nM.
Work on COCCN1C[C@H](C(=O)N2CCN(c3ccccn3)CC2)C[C@@H]2c3cccc4[nH]c(Br)c(c34)C[C@H]21 yielded a Kd [2] of 1480 nM.
CN1C[C@H](C(=O)N2CCN(c3ccc4nsnc4n3)CC2)C[C@@H]2c3cccc4[nH]c(Cl)c(c34)C[C@H]21 gave a Kd [1] of 3.89 µM and a Kd [2] of 0.24 nM.
Work on CN1C[C@H](C(=O)N2CCN(c3ccc(Cl)cc3)CC2)C[C@@H]2c3cccc4[nH]c(Cl)c(c34)C[C@H]21 yielded a Kd [1] of 5.89 µM and a Kd [2] of 4.17 nM.
With O=C([C@@H]1C[C@@H]2c3cccc4[nH]c(Br)c(c34)C[C@H]2N(CCCO)C1)N1CCN(c2ccccn2)CC1 the Kd [2] was 2340 nM.
Work on CN1C[C@H](C(=O)N2CCN(c3ccc4nonc4c3)CC2)C[C@@H]2c3cccc4[nH]c(Br)c(c34)C[C@H]21 yielded a Kp at 10 min [10] of 0.7, a Kp at 24 h [11] of 1.7 and a Kd [3] of 2.34 µM. For the same molecule, the Kd [1] was 6.46 µM, the Kd [4] was 6.46 µM and the Kd [2] was 0.372 nM. The pKb [8] was 7.62, the pKb [9] was 9.42 and the Kd [12] was 126 nM. For the same molecule, the Kd [13] was 28.2 nM, the Kd [14] was 77.6 nM and the Kd [5] was 3.63 µM. For the same molecule, the Kd [6] was 1.23 nM, the Kd [7] was 6.76 µM and the bioavailability [15] was 48%.

From ChEMBL document CHEMBL1140830, “Ergoline derivatives as highly potent and selective antagonists at the somatostatin sst 1 receptor” (Bioorg Med Chem Lett, 2008)
